pIC50, pKi: −log10 of the molar value.
How the values were obtained:
[1] = target: memapsin 2 (Homo sapiens, UniProt P56817); assay: Inhibition of memapsin 2 beta-secretase activity (fluorogenic substrate FS-2); format: biochemical; conditions: memapsin 2, pH 4, 37° C., 20 minutes pre-incubation; read-out: M2Ki
Method in brief: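 Memapsin 2 pre-incubated 20 min with compound at pH 4, 37° C, then FS-2 substrate (MCA-SEVNLDAEFK-DNP, APP Swedish cleavage site) added. Rate of fluorescence increase compared with uninhibited controls, fitted to a tight-binding inhibition model.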

[2] = system: Aβ production in Chinese hamster ovary cells that over-express human APP695 with the London and Swedish mutations; assay: Cellular Aβ IC50 determination (Aβ40 sandwich ELISA); format: cell-based; conditions: Cricetulus griseus; cellular Aβ production; read-out: IC50
Method in brief: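 CHO cells overexpressing human APP695 with London and Swedish mutations, seeded at 10% confluency, treated with compounds up to about 4 μM final (0.4% DMSO). Secreted Aβ40 measured by sandwich ELISA relative to control and fitted to a 4-parameter IC50 model.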

memapsin 2, sequence (P56817 46-501): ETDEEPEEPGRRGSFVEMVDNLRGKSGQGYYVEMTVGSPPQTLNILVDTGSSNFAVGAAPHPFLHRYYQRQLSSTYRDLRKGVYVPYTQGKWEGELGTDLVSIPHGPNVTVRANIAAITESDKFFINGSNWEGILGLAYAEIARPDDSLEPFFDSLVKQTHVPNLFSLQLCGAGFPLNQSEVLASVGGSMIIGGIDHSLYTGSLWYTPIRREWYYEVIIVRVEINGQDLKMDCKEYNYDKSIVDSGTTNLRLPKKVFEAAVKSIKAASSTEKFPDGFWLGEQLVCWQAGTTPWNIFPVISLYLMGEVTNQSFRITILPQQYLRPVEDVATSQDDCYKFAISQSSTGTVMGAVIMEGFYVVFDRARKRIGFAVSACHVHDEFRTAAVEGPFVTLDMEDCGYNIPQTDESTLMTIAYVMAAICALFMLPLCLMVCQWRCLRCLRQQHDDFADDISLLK

| Compound | pKi [1] | pIC50 [2] |
| --- | --- | --- |
| C[C@@H](NC(=O)c1cc(C(=O)N[C@@H](Cc2ccccc2)[C@H](O)CNCc2cc(C(C)(C)C)ccc2O)cc(N(C)S(C)(=O)=O)c1)c1ccccc1 [Compound 110, N1-((2S,3R)-4-(5-tert-butyl-2-hydroxybenzylamino)-3-hydroxy-1-phenylbutan-2-yl)-5-(N-methylmethylsulfonamido)-N3-((R)-1-phenylethyl)isophthalamide] | > 6.52 | > 6.00 |
| Cc1csc(CN(C)C(=O)c2cccc(C(=O)N[C@@H](Cc3ccccc3)[C@H](O)CNCc3cc(C(C)(C)C)ccc3O)c2)n1 [Compound 111, N1-((2S,3R)-4-(5-tert-butyl-2-hydroxybenzylamino)-3-hydroxy-1-phenylbutan-2-yl)-N3-methyl-N3-((4-methylthiazol-2-yl)methyl)isophthalamide] | > 6.52 | > 6.00 |
| CNC(=O)c1cc(CNC[C@@H](O)[C@H](Cc2ccccc2)NC(=O)c2cccc(C(=O)N(C)Cc3nc(C)cs3)c2)cc(OC)c1 [Compound 112, N1-((2S,3R)-3-hydroxy-4-(3-methoxy-5-(methylcarbamoyl)benzylamino)-1-phenylbutan-2-yl)-N3-methyl-N3-((4-methylthiazol-2-yl)methyl)isophthalamide] | > 6.52 | > 6.00 |
| C[C@@H](NC(=O)c1cc(C(=O)N[C@@H](Cc2ccccc2)[C@H](O)CNCc2cccc(C(=O)O)c2)cc(N(C)S(C)(=O)=O)c1)c1ccccc1 [Compound 113, 3-(((2R,3S)-2-hydroxy-3-(3-(N-methylmethylsulfonamido)-5-((R)-1-phenylethylcarbamoyl)benzamido)-4-phenylbutylamino)methyl)benzoic acid] | > 6.52 | > 6.00 |
| COC(=O)c1cc(CNC[C@@H](O)[C@H](Cc2ccccc2)NC(=O)c2cc(C(=O)N[C@H](C)c3ccccc3)cc(N(C)S(C)(=O)=O)c2)cc(OC)c1 [Compound 114, methyl 3-(((2R,3S)-2-hydroxy-3-(3-(N-methylmethylsulfonamido)-5-((R)-1-phenylethylcarbamoyl)benzamido)-4-phenylbutylamino)methyl)-5-methoxybenzoate] | > 6.52 | > 6.00 |
| Cc1cccc(CNC[C@@H](O)[C@H](Cc2ccccc2)NC(=O)c2cccc(C(=O)N(C)Cc3nc(C)cs3)c2)n1 [Compound 115, N1-((2S,3R)-3-hydroxy-4-((6-methylpyridin-2-yl)methylamino)-1-phenylbutan-2-yl)-N3-methyl-N3-((4-methylthiazol-2-yl)methyl)isophthalamide] | < 6.30 | > 6.00 |
| Cc1csc(CN(C)C(=O)c2cccc(C(=O)N[C@@H](Cc3ccccc3)[C@H](O)CNCc3cc(OCc4ccccc4)cc(C(C)C)c3)c2)n1 [Compound 116, N1-((2S,3R)-4-(3-(benzyloxy)-5-isopropylbenzylamino)-3-hydroxy-1-phenylbutan-2-yl)-N3-methyl-N3-((4-methylthiazol-2-yl)methyl)isophthalamide] | > 6.52 | > 6.00 |
| COc1cccc(CNC[C@@H](O)[C@H](Cc2ccccc2)NC(=O)c2cc(NO)cc(C(=O)N(C)Cc3nc(C)cs3)c2)c1 [Compound 117, N1-((2S,3R)-3-hydroxy-4-(3-methoxybenzylamino)-1-phenylbutan-2-yl)-5-(hydroxyamino)-N3-methyl-N3-((4-methylthiazol-2-yl)methyl)isophthalamide] | > 6.52 | > 6.00 |
| Cc1csc(CN(C)C(=O)c2cccc(C(=O)N[C@@H](Cc3ccccc3)[C@H](O)CNCc3cnn(C(C)(C)C)c3C)c2)n1 [Compound 118, N1-((2S,3R)-4-((1-tert-butyl-5-methyl-1H-pyrazol-4-yl)methylamino)-3-hydroxy-1-phenylbutan-2-yl)-N3-methyl-N3-((4-methylthiazol-2-yl)methyl)isophthalamide] | < 6.30 | 5.30 to 6.00 |
| Cc1csc(CN(C)C(=O)c2cccc(C(=O)N[C@@H](Cc3ccccc3)[C@H](O)CNCc3cc(NS(C)(=O)=O)cc(C(C)C)c3)c2)n1 [Compound 119, N1-((2S,3R)-3-hydroxy-4-(3-isopropyl-5-(methylsulfonamido)benzylamino)-1-phenylbutan-2-yl)-N3-methyl-N3-((4-methylthiazol-2-yl)methyl)isophthalamide] | > 6.52 | > 6.00 |
| COc1cccc(CNC[C@@H](O)[C@H](Cc2ccccc2)NC(=O)c2cc(CN=[N+]=[N-])cc(C(=O)N(C)Cc3nc(C)cs3)c2)c1 [Compound 121, 5-(azidomethyl)-N1-((2S,3R)-3-hydroxy-4-(3-methoxybenzylamino)-1-phenylbutan-2-yl)-N3-methyl-N3-((4-methylthiazol-2-yl)methyl)isophthalamide] | > 6.52 | > 6.00 |
| COCc1cc(C(=O)N[C@@H](Cc2ccccc2)[C@H](O)CNCc2cccc(OC)c2)cc(C(=O)N(C)Cc2nc(C)cs2)c1 [Compound 122, N1-((2S,3R)-3-hydroxy-4-(3-methoxybenzylamino)-1-phenylbutan-2-yl)-5-(methoxymethyl)-N3-methyl-N3-((4-methylthiazol-2-yl)methyl)isophthalamide] | > 6.52 | > 6.00 |
| CC(=O)c1cccc(CNC[C@@H](O)[C@H](Cc2ccccc2)NC(=O)c2cccc(C(=O)N(C)Cc3nc(C)cs3)c2)c1 [Compound 124, N1-((2S,3R)-4-(3-acetylbenzylamino)-3-hydroxy-1-phenylbutan-2-yl)-N3-methyl-N3-((4-methylthiazol-2-yl)methyl)isophthalamide] | > 6.52 | > 6.00 |
| Cc1csc(CN(C)C(=O)c2cccc(C(=O)N[C@@H](Cc3ccccc3)[C@H](O)CNCc3cc(O)cc(C(C)C)c3)c2)n1 [Compound 125, N1-((2S,3R)-3-hydroxy-4-(3-hydroxy-5-isopropylbenzylamino)-1-phenylbutan-2-yl)-N3-methyl-N3-((4-methylthiazol-2-yl)methyl)isophthalamide] | > 6.52 | > 6.00 |
| CC(=O)c1cccc(CNC[C@@H](O)[C@H](Cc2ccccc2)NC(=O)c2cc(C(=O)N[C@H](C)c3ccccc3)cc(N(C)S(C)(=O)=O)c2)c1 [Compound 126, N1-((2S,3R)-4-(3-acetylbenzylamino)-3-hydroxy-1-phenylbutan-2-yl)-5-(N-methylmethylsulfonamido)-N3-((R)-1-phenylethyl)isophthalamide] | > 6.52 | > 6.00 |
| Cc1csc(CN(C)C(=O)c2cccc(C(=O)N[C@@H](Cc3ccccc3)[C@H](O)CNCc3cccc(N(C)C)c3)c2)n1 [Compound 129, N1-((2S,3R)-4-(3-(dimethylamino)benzylamino)-3-hydroxy-1-phenylbutan-2-yl)-N3-methyl-N3-((4-methylthiazol-2-yl)methyl)isophthalamide] | > 6.52 | > 6.00 |
| Cc1csc(CN(C)C(=O)c2cccc(C(=O)N[C@@H](Cc3ccccc3)[C@H](O)CNCc3cc(C(C)C)cc(N(C)C(=O)OCc4ccccc4)c3)c2)n1 [Compound 130, benzyl 3-(((2R,3S)-2-hydroxy-3-(3-(methyl((4-methylthiazol-2-yl)methyl)carbamoyl)benzamido)-4-phenylbutylamino)methyl)-5-isopropylphenyl(methyl)carbamate] | 6.30 to 6.52 | < 5.30 |
| CNc1cc(CNC[C@@H](O)[C@H](Cc2ccccc2)NC(=O)c2cccc(C(=O)N(C)Cc3nc(C)cs3)c2)cc(C(C)C)c1 [Compound 133, N1-((2S,3R)-3-hydroxy-4-(3-isopropyl-5-(methylamino)benzylamino)-1-phenylbutan-2-yl)-N3-methyl-N3-((4-methylthiazol-2-yl)methyl)isophthalamide] | > 6.52 | > 6.00 |
| COC(=O)c1cc(CNC[C@@H](O)[C@H](Cc2ccccc2)NC(=O)c2cccc(C(=O)N(C)Cc3nc(C)cs3)c2)cc(N(C)S(C)(=O)=O)c1 [Compound 134, methyl 3-(((2R,3S)-2-hydroxy-3-(3-(methyl((4-methylthiazol-2-yl)methyl)carbamoyl)benzamido)-4-phenylbutylamino)methyl)-5-(N-methylmethylsulfonamido)benzoate] | > 6.52 | 5.30 to 6.00 |
| Cc1csc(CN(C)C(=O)c2cccc(C(=O)N[C@@H](Cc3ccccc3)[C@H](O)CNCc3cccc(C#N)c3)c2)n1 [Compound 137, N1-((2S,3R)-4-(3-cyanobenzylamino)-3-hydroxy-1-phenylbutan-2-yl)-N3-methyl-N3-((4-methylthiazol-2-yl)methyl)isophthalamide] | > 6.52 | > 6.00 |
| Cc1csc(CN(C)C(=O)c2cccc(C(=O)N[C@@H](Cc3ccccc3)[C@H](O)CNCc3cc(C(=O)O)cc(N(C)S(C)(=O)=O)c3)c2)n1 [Compound 139, 3-(((2R,3S)-2-hydroxy-3-(3-(methyl((4-methylthiazol-2-yl)methyl)carbamoyl)benzamido)-4-phenylbutylamino)methyl)-5-(N-methylmethylsulfonamido)benzoic acid] | > 6.52 | > 6.00 |
| COc1cccc(CNC[C@@H](O)[C@H](Cc2ccccc2)NC(=O)c2cc(C(=O)N(C)Cc3nc(C)cs3)cc(-c3ccccc3C#N)c2)c1 [Compound 140, 2′-cyano-N3-((2S,3R)-3-hydroxy-4-(3-methoxybenzylamino)-1-phenylbutan-2-yl)-N5-methyl-N5-((4-methylthiazol-2-yl)methyl)biphenyl-3,5-dicarboxamide] | > 6.52 | > 6.00 |
| COC(=O)c1cccc(CNC[C@@H](O)[C@H](Cc2ccccc2)NC(=O)c2cccc(C(=O)N(C)Cc3nc(C)cs3)c2)c1 [Compound 141, methyl 3-(((2R,3S)-2-hydroxy-3-(3-(methyl((4-methylthiazol-2-yl)methyl)carbamoyl)benzamido)-4-phenylbutylamino)methyl)benzoate] | 6.30 to 6.52 | > 6.00 |

Source: patent publication US20100286145A1, “ISOPHTHALAMIDE DERIVATIVES INHIBITING BETA-SECRETASE ACTIVITY” (CoMentis, Inc., priority 2007, published 2010)
